From patent publication US12440500B2, “Phytoecdysones and the derivatives thereof for use in the treatment of neuromuscular diseases” (BIOPHYTIS, priority 2019, dated 2025)

Columns and labels:
[1] = young athletes; cited from earlier work
muscles = conditions: rats in vivo; cited from earlier work
murine myotubes C2C12 = murine myotubes C2C12 in vitro; cited from earlier work
[2] = system: muscles Soleus, Plantaris and Tibialis of SMA mice; assay: Histological analysis of muscle cross-sections (Hematoxylin-Eosin): number and cross-section surface of muscle fibers; format: in vivo, mouse
Description: At P11, one hour after their last gavage, the treated mice were anaesthetized with pentobarbital 1% at 6 μL/g of mouse then the extensor muscles Soleus, with a mixed typology, extensor Plantaris, with a fast typology, and flexor Tibialis, with a fast typology, were sampled in order to conduct histological or molecular studies. After sampling, the muscles Soleus, Plantaris and Tibialis were included individually in a preservation medium then frozen in cooled isopentane. For each muscle, medial cross-sections 10 μm thick were realized. These sections were stained with Hematoxyline-Eosin, dehydrated and mounted in an inclusion medium. The images of these sections were taken with a microscope (with a magnification ×200). In order to obtain images with an impression of relief, the differential interference contrast technique was used. From these images, the number of muscle fibers of each muscle and the cross-section surface of 20% of these fibers were counted using image processing software (FIG. 2).

[3] = system: SMA mice (FVB/NRj-SmnΔ7/Δ7 huSMN2+/+ 2 copies); assay: Phenotypic analysis: weight and survival of severe SMA mice under daily gavage; format: in vivo, mouse
Description: A severe SMA mouse model was used on an FVB/NRj gene pool, characterized by the invalidation of the exon 7 of the murine gene Smn and expressing 2 copies of the human transgene SMN2 (Smn^Δ7/Δ7; huSMN2^+/+) (Hsieh et al., 2000). The mice resulting from these crossings having the “FVB/NRj-Smn^Δ7/Δ7 huSMN2^+/+ 2 copies” genotype are described as “SMA”. These mice are characterized by progressive growth failure which is observed starting from 4 days post-natal and have a degeneration of about 50% of the motor neurons of the ventral horn of the spinal cord at the end of life, progressive muscular atrophy and an average lifespan of about 12 days (Hsieh et al., 2000). The mice having the “FVB/NRj-Smn^+/Δ7 huSMN2^++ 2 copies” genotype have no particular phenotype and are used as so-called “control” mice. The mice were treated via daily gavage of a dose of 50 mg/kg, either with the molecule BIO101 complexed to a vehicle (cyclodextrin in the present case), or with the vehicle alone (VH). The weight and the survival were analyzed on a daily basis until P11. In the rest of the description, n corresponds to the size of the sample and p corresponds to the “p value” used to quantify the statistical significance of a result.
The same type II murine model was used to characterize the phenotypic effects of the molecule BIO103 in a severe SMA model. The mice were treated via daily gavage of a dose of 50 mg/kg, either with the molecule BIO103 complexed with the vehicle (cyclodextrin in the present case), or with the vehicle alone (VH). The weight and the survival were analyzed on a daily basis until P11.

| Structure (SMILES) | muscle mass [1] | effects on protein syntheses in muscles (muscles) | effects on protein syntheses (murine myotubes C2C12) | atrophy of the muscle fibers (cross-section surface) in relation to healthy control mice ([2]; Plantaris, P11, SMA mice treated P0 to P11 (SMA vehicle 46%)) [%] | atrophy of the muscle fibers (cross-section surface) in relation to healthy control mice ([2]; Soleus, P11, SMA mice treated P0 to P11 (SMA vehicle 50.2%)) [%] | atrophy of the muscle fibers (cross-section surface) in relation to healthy control mice ([2]; Tibialis, P11, SMA mice treated P0 to P11 (SMA vehicle 56.1%)) [%] | proportion of fibers with cross-section surface greater than 400 μm^2 ([2]; Tibialis, versus SMA vehicle) | proportion of small fibers with cross-section surface less than 200 μm^2 ([2]; Tibialis, versus SMA vehicle, p<0.05) | survival at P11 ([3]; 50 mg/kg daily gavage P0 to P11) [%] | loss of weight of the animals ([3]; 50 mg/kg daily gavage from birth to P11, versus vehicle) |
| --- | --- | --- | --- | --- | --- | --- | --- | --- | --- | --- |
| CC(C)(O)CC[C@@H](O)[C@](C)(O)[C@H]1CC[C@@]2(O)C3=CC(=O)[C@@H]4C[C@@H](O)[C@@H](O)C[C@]4(C)[C@H]3CC[C@]12C [20-hydroxyecdysone] | favors the increase | stimulating effects | stimulating effects |  |  |  |  |  |  |  |
| CCSCC(=O)[C@H]1CC[C@@]2(O)C3=CC(=O)[C@@H]4C[C@@H](O)[C@@H](O)C[C@]4(C)C3CC[C@]12C (stereo partly drawn) [BIO103, (2S,3R,5R,10R,13R,14S,17S)-17-(2-ethylsulfanylacetyl)-2,3,14-trihydroxy-10,13-dimethyl-2,3,4,5,9,11,12,15,16,17-decahydro-1H-cyclopenta[a]phenanthren-6-one] |  |  |  | 15.3 | 37.1 | 22.1 | significant increase | decreases significantly | 66.6 | tends to limit |
